The record followed here is the SangsterLogP compilation.

The structures appear in SMILES notation.

A short description of this series: method code SF, from DOI: 10.1080/00021369.1987.10868331.
In the case of `CNc1nc(NC)nc(SC(F)F)n1`, the logP (in general, a log measure of how a compound divides between an organic and an aqueous phase) amounted to 2.31.
For `CCCNc1nc(NCCC)nc(SC(F)F)n1` the value was 4.45.
For `CCCCNc1nc(NC(C)C)nc(SC(F)F)n1` the value was 4.75; for `CCC(C)Nc1nc(NC(C)C)nc(SC(F)F)n1` (stereo unspecified), 4.55.
For `CNc1nc(NC(C)C)nc(SC(F)F)n1`, the log partition coefficient (logP) came out at 3.27.
For `CCNc1nc(NC)nc(SC(F)F)n1` the value was 2.68.
For `CCNc1nc(N)nc(SC(F)F)n1` the value was 2.29.
Compound `Nc1nc(N)nc(SC(F)F)n1` yielded a logP of 1.21.
For `CCCCCNc1nc(NCC)nc(SC(F)F)n1` the value was 4.71; for `CNc1nc(NC(C)(C)C)nc(SC(F)F)n1`, 3.91.
The result for `CCNc1nc(NCC)nc(SC(F)F)n1` reads 3.28; that for `CCC(C)Nc1nc(NC)nc(SC(F)F)n1` (stereo unspecified), 3.69.
For `CCCCNc1nc(NC)nc(SC(F)F)n1` the value was 3.7.
`CC(C)Nc1nc(NC(C)C)nc(SC(F)F)n1`: the logP is 4.25.
For `CCCNc1nc(NC)nc(SC(F)F)n1` the value was 3.28; for `CCCCCNc1nc(NC)nc(SC(F)F)n1`, 4.42; for `CCNc1nc(NC(C)(C)C)nc(SC(F)F)n1`, 4.57.
For `CCCCCCNc1nc(NCC)nc(SC(F)F)n1` the value was 5.53; for `CNc1nc(N)nc(SC(F)F)n1`, 1.75; for `CCCNc1nc(NCC)nc(SC(F)F)n1`, 3.8.
The result for `CCCCNc1nc(NCC)nc(SC(F)F)n1` reads 4.51.
As for `CC(C)Nc1nc(NC(C)(C)C)nc(SC(F)F)n1`, the logP came to 4.7.
For `CCCCCCCCNc1nc(NCC)nc(SC(F)F)n1` the value was 6.61.
In turn, `CCCNc1nc(NC(C)C)nc(SC(F)F)n1` came in with a logP of 4.23.
`CCNc1nc(NC(C)C)nc(SC(F)F)n1`: the logP came to 3.7.
For `CCNc1nc(NC(C)CC)nc(SC(F)F)n1` (stereo unspecified) the value was 4.23.
